Data from US12129258B2, “Diaryl macrocyclic compound and pharmaceutical composition, and use thereof” (PrimeGene (Beijing) Co., Ltd., priority 2018, dated 2024).
pIC50: −log10 of the molar value. Read-outs that look alike come from different tables or passages of the source.

Tests used:
TRKA = TRKA (Homo sapiens (Human), UniProt P04629); experiment: Mobility shift assay, TRKA kinase; format: biochemical; conditions: ATP 47.8 μM
From the text: (§1) The operation is described as follows:
(§2) Conversion %_Sample: conversion rate of sample;

ROS1 = ROS1 (Homo sapiens (Human), UniProt P08922); experiment: Mobility shift assay, ROS1 kinase; format: biochemical; conditions: ATP 26.7 μM
From the text: as §1, §2

ROS1-G2032R = ROS1-G2032R (Homo sapiens (Human), UniProt P08922, G2032R); experiment: LanceUltra kinase activity assay, ROS1-G2032R; format: biochemical; conditions: 2.6 μM ATP
Procedure: 5 μl 40 mM EDTA was used to stop the reaction. Then 2 nM Europium-anti-phosphotyrosine (PT66) (PerkinElmer, Cat. AD0069) was added and incubated at room temperature for 60 mins. […] The IC50 values of the compounds were calculated using XLFIT5 (IDBS) software.

Ba/F3 ETV6-NTRK3-WT = experiment: Cell proliferation inhibition (CellTiter-Glo), Ba/F3 ETV6-NTRK3-WT; format: cell-based; conditions: Mus musculus, BaF3, 72 h, 72 hrs, read-out: IC50 proliferation Ba/F3 ETV6-NTRK3-WT
Ba/F3 LMNA-NTRK3-G623R = experiment: Cell proliferation inhibition (CellTiter-Glo), Ba/F3 LMNA-NTRK3-G623R; format: cell-based; conditions: Mus musculus, BaF3, 72 h, 72 hrs, read-out: IC50 proliferation Ba/F3 LMNA-NTRK3-G623R
[1] = Blood-to-brain distribution in rats; format: in vivo; conditions: male, SD, rat, 10 mg/kg single oral gavage
Procedure: 7. Blood-to-Brain Distribution
Male SD rats were grouped, each group having 12 rats. Each group was given the compound of Examples (10 mg/kg) by single oral gavage. The animals were fasted overnight from 10 hours before administration to 4 hours after administration. The rats were killed at 0.5, 1, 4 and 12 hours after administration, and blood and brain tissues were collected. The samples were centrifuged at 4000 rpm at 4° C. for 5 min and plasma was transferred into the centrifuge tube and stored at −80° C. until analysis. The extract from the plasma extracted by protein precipitation was analyzed by LC/MS/MS.

TRKB = TRKB (Homo sapiens (Human), UniProt Q16620); experiment: Mobility shift assay, TRKB kinase; conditions: read-out: TRKB IC50, ATP 71.2 μM
TRKB, sequence (Q16620 32-822): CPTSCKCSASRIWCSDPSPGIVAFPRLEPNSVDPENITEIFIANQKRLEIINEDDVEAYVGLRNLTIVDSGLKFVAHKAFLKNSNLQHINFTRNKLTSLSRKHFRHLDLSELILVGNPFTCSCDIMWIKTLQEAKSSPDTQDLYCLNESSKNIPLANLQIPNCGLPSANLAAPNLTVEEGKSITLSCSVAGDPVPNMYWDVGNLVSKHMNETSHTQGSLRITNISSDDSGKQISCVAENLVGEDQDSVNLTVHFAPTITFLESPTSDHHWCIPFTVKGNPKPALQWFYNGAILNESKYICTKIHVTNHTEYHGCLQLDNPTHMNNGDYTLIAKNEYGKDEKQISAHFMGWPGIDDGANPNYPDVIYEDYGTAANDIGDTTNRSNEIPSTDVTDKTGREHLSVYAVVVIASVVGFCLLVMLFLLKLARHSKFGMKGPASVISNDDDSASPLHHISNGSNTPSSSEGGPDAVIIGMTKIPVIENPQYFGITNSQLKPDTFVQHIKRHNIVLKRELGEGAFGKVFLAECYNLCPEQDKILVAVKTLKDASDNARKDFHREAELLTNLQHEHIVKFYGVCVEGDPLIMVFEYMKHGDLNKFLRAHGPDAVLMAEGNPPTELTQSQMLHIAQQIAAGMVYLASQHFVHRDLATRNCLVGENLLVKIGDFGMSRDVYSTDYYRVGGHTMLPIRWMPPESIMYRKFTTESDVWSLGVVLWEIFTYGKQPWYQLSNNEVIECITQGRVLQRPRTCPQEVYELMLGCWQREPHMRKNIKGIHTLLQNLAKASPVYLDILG
Procedure: The inhibitory activity of compounds on TRKA, TRKB, TRKC and ROS1 kinase was analyzed with Mobility shift assay. The screening platform is MSA based microfluidic chip technology, which applies the basic concept of capillary electrophoresis to microfluidic environment. The substrate used in the experiment is a poly-peptide labeled with fluorescent. Under the catalysis of enzyme in the reaction system, the substrate is transformed into a product, with the charge changed accordingly. MSA technology could detect the substrate and the product with different charge separately.
The compound powder was dissolved in 100% DMSO (Sigma, Cat. D8418-1l) to prepare a 10 mM storage solution. […] The reaction was carried out at room temperature for 30 min/40 min/20 min/20 min respectively. After the reaction was terminated, the conversion rate was read by Caliper EZ Reader II.
Conversion %_Min: mean value of negative control, representing the conversion rate without enzyme activity;
Conversion %_Max: mean value of positive control, which represents the conversion rate reading without compound inhibition.
Taking the log value of concentration as X axis and the percentage inhibition rate as Y axis, the dose response curve was fitted by the analysis software GraphPad Prism 5, thus the IC50 value of each compound on enzyme activity inhibition was obtained.

TRKA, sequence (P04629 33-796): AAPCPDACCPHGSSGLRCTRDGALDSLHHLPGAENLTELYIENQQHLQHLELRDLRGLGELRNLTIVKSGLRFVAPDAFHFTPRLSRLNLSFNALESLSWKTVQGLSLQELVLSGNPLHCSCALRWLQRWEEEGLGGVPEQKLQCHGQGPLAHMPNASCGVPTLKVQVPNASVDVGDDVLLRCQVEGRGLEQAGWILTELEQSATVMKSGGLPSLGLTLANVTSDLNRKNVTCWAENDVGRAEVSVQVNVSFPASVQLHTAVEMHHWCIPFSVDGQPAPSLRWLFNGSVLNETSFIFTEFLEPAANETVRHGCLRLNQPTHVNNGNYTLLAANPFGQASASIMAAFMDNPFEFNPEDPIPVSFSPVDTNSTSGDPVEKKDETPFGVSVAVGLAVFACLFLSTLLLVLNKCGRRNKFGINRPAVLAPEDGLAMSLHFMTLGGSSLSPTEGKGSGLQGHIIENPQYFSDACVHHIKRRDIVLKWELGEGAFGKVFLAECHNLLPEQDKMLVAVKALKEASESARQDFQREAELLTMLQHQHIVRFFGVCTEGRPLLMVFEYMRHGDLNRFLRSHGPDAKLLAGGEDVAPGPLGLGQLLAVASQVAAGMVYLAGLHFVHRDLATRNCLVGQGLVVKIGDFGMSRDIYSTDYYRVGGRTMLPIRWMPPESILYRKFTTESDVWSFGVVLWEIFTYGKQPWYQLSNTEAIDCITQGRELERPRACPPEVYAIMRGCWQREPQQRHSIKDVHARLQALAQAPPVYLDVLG
ROS1, sequence (P08922 28-2347): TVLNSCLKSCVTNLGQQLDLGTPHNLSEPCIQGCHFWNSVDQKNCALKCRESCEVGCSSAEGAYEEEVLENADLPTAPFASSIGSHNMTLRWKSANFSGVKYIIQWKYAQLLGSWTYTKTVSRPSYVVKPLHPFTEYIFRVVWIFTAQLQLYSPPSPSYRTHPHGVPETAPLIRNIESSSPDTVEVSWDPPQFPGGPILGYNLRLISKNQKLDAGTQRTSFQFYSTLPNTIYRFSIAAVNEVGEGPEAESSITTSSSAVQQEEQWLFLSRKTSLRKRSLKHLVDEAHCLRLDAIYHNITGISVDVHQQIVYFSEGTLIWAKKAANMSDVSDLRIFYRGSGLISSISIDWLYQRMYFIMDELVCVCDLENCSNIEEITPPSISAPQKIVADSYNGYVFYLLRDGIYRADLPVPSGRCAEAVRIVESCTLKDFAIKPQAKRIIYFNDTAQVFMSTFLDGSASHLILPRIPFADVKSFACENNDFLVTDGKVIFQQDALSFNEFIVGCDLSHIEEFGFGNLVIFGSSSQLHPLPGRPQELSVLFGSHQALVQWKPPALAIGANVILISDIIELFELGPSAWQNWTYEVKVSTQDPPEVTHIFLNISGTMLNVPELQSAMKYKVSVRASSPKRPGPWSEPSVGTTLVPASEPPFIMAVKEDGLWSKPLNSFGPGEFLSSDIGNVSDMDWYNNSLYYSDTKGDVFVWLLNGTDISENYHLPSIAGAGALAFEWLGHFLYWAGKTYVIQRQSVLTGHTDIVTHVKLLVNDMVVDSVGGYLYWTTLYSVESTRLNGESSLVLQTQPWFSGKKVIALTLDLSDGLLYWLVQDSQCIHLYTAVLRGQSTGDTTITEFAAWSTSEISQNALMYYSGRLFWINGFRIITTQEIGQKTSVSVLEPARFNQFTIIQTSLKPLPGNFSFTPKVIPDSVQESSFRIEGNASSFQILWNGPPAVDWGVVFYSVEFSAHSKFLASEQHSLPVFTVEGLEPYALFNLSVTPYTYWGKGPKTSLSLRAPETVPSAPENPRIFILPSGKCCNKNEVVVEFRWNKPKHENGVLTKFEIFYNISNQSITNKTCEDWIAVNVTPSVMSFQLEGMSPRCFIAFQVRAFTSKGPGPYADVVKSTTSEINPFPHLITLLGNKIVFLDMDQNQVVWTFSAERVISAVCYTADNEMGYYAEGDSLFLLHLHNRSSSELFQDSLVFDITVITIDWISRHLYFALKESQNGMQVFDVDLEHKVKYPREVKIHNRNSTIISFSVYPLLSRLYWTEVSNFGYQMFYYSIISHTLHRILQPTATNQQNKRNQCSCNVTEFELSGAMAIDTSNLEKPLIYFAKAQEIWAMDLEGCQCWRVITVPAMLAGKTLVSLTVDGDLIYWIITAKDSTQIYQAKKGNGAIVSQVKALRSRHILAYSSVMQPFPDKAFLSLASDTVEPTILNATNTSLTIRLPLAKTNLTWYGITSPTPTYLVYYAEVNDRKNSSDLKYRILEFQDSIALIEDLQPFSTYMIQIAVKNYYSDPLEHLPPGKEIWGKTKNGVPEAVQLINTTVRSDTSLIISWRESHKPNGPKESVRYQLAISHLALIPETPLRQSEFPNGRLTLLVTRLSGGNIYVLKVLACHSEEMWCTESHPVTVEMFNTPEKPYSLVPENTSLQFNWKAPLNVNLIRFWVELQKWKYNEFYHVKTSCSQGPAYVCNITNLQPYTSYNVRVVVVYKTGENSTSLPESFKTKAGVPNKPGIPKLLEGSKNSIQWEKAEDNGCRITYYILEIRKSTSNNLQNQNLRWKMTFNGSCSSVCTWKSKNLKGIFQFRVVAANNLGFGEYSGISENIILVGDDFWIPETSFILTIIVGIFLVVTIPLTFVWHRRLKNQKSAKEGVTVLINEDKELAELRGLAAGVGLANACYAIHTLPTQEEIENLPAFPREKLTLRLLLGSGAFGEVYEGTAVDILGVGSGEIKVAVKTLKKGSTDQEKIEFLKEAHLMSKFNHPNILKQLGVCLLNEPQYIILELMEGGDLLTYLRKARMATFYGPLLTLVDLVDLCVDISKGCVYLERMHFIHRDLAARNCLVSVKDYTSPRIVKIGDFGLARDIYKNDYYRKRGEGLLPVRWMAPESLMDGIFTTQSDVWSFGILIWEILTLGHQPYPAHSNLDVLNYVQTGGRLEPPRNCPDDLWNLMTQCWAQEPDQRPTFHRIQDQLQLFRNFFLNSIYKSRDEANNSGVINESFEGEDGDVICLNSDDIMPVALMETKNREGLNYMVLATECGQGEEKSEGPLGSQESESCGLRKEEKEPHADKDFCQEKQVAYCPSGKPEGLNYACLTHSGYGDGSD
ROS1-G2032R, sequence (P08922 28-2347 G2032R): as the sequence (P08922 28-2347) above, with G2005R counted along it

For C[C@H]1COC(=O)c2cnn3ccc(nc23)N[C@H](C)c2cc(F)ccc2O1 [Example 1, (1^3E,1^4E,3R,6S)-4^5-fluoro-3,6-dimethyl-5,8-dioxa-2-aza-1(5,3)-pyrazolo[1,5-a]pyrimidina-4(1,2)-benzenacyclononaphan-9-one], the pIC50 (TRKA) was 9.38, the pIC50 (ROS1) was 9.48 and the pIC50 (ROS1-G2032R) was 9.44. The pIC50 (Ba/F3 ETV6-NTRK3-WT; test batch marked #) was 8.98, the pIC50 (Ba/F3 ETV6-NTRK3-WT; test batch marked *) was 9.70 and the pIC50 (Ba/F3 LMNA-NTRK3-G623R; test batch marked #) was 8.08. For the same molecule, the pIC50 (Ba/F3 LMNA-NTRK3-G623R; test batch marked *) was 8.08, the Kp ([1]; brain/plasma, AUC0-inf ratio) was 1.14 and the AUC(0-inf) ([1]; brain, read-out: AUC0-inf Brain) was 20.8 µM·h. The AUC(0-inf) ([1]; plasma, read-out: AUC0-inf Plasma) was 18.2 µM·h and the pIC50 (TRKB) was 9.30.
